Test results published in publication PMC8986850, “Development and exploration of novel substituted thiosemicarbazones as inhibitors of aldose reductase via in vitro analysis and computational study” (Scientific Reports, 2022).

What was measured:
ALR2 = molecular target: T1, ALR2 (Bos taurus, UniProt P16116); assay: ALR2 enzyme inhibition assay (enzyme extracted from calf lenses); type: biochemical, bovine
T1 construct: from tissue; host or cells: calf eye lenses
Procedure: Compounds 3a-o were tested against ALR2 to evaluate their inhibitory potential against aldose reductase whereas selectivity was determined via performing ALR1 inhibition assay. For the enzyme inhibition assay, ALR2 and ALR1 were extracted from bovine sources (ALR2 from eyes and ALR1 from kidneys). Moreover, inhibitions studies were also carried out on the expressed ALR2 (human AKR1B1) and inhibition data for ALR2- bovine source and expressed enzyme was compared and analyzed. The protocols for enzyme extraction and expression in the bacterial system are included in the section of “Supporting information”. […] For the purpose of comparison and validation of enzyme inhibition data, these compounds were tested against human AKR1B1 (hAKR1B1) expressed in E. coli BL21 (DE3).
(§1) For the determination of enzyme activity of ALR1 and ALR2, 100 µL of reaction mixture was composed of 20 µL of buffer (100 mM sodium phosphate, pH 6.2), 30 µL of enzyme extract, 20 µL of substrate (10 mM), 20 µL of cofactor (0.1 mM of NADPH) and 10 µL of test compound (1 mM)[6],[21]. The reaction mixture without cofactor was incubated at 32°C for 10 min, then the enzymatic reaction was initiated with the addition of NADPH and monitored for 5 minutes. Similar protocols were followed for ALR1 and ALR2, however the substrate was different for each enzyme, with sodium-D-glucoronate and DL-glyceraldehyde used as the substrates for the ALR1 and ALR2 assays, respectively. […] In addition, similar protocols were adopted for human AKR1B1 that was expressed in E. coli BL21 (DE3), though the determined protein concentration was 12 µg/mL for the expressed enzyme. Detailed protocols for the preparation of ALR1, ALR2 and expressed human AKR1B1 can be found in the supporting information.
(§2) The newly synthesized N-substitute thiosemicarbazones (3a-o) were dissolved in 100% DMSO and diluted with deionized water, keeping the DMSO concentration equal to 0.1% in the assay.
The extraction of ALR2 was carried out from calf lenses via adopting method described in
in (Hayman and Kinoshita 1965) with little modification. The lenses were obtained from slaughterhouse immediately after calf’s slaughtering and stored at -20^◦C until further use. These lense (150-170g) were subjected to homogenization with about three times volume of cold distilled water and then centrifugation was carried out for the homogenate at 10,000 x g for 14 minutes for removal of insoluble lipids particles. Precipitates were discarded and supernatant layer was subjected to 40% saturation of ammonium sulphate and again centrifugation was performed with same parameters for 14 minutes and again precipitates were discarded. […] In the last step, the supernatant was subjected to 75% of saturation with ammonium sulphate to obtain ALR2. Now, the precipitates were collected instead supernatant because precipitated protein was the expected desired ALR2. The precipitated enzyme (ALR2) was redissolved in 50mM solution of sodium chloride and dialyzed for 24 hours against 50mM solution (3.5L) of NaCl. The volume was recorded before and after dialysis, then dialyzed material was treated with liquid nitrogen. The extracted ALR2 was stored in 1mL Eppendorf tube in deep freezer at -80 ^◦C till further enzymatic studies.

human AKR1B1 (hAKR1B1) = molecular target: T2, human AKR1B1 (hAKR1B1) (Homo sapiens, UniProt P15121); assay: Inhibition of expressed human AKR1B1 (E. coli BL21 (DE3)); type: biochemical; details: human AKR1B1 expressed in E. coli BL21 (DE3), mean ± SEM of three measurements
T2 construct: made in house; host or cells: E. coli BL21 (DE3)
Procedure: For the enzyme inhibition assay, ALR2 and ALR1 were extracted from bovine sources (ALR2 from eyes and ALR1 from kidneys). Moreover, inhibitions studies were also carried out on the expressed ALR2 (human AKR1B1) and inhibition data for ALR2- bovine source and expressed enzyme was compared and analyzed. The protocols for enzyme extraction and expression in the bacterial system are included in the section of “Supporting information”. […] For the purpose of comparison and validation of enzyme inhibition data, these compounds were tested against human AKR1B1 (hAKR1B1) expressed in E. coli BL21 (DE3).
as §1, with “The reaction mixture without cofactor was incubated at 32°C for 10 min, then the enzymatic reaction was initiated with the addition of NADPH and monitored for 5 minutes.” left out
as §2
The expression plasmid for aldose reductase (pDONR223_AKR1B1_WT) was gift from Addgene in stable culture. Streaking of this culture has been carried out on LB Agar plate then incubated overnight, after growth of colonies , inoculation was performed in LB medium then incubated this medium in shaking incubator at 37 °C. After 48 hours turbidity was measured when OD=0.6 then some of bacterial growth was prepared as 50% glycerol stock. Others are subjected to plasmid isolation following method Miniprep. Meanwhile E. Coli BL21 De3 cells were made competent then transformation with extracted plasmid (AKR1B1) had been carried out heat shock method. Transformed cell ( E.Coli BL21 DE3+AKR1B1) were grown in 37 °C in shaking incubator for 48 hr. The selection for transformed cells was carried out with the help of antibiotic (spectinomycin 50µg/ml). […] For the expression of aldose reductase , E.coli BL21DE3 were induced with of IPTG(Isopropyl-d-thiogalactopyranoside)[3]. […] The expressed enzyme was stabilized by addition 10 mM Tris–HCl buffer, 0.5 mM EDTA, 5 mM β-marcaptoethanol at pH 8.0 and 20% (v/v) glycerol. Cells were lysed with lysis buffer and then precipitation with ammonium sulfate up to 80% saturation was done . the expressed enzyme was dialyzed overnight against tris buffer. Protein quantification was performed following Bradford protein assay. Aliqoutes were stored at -80 refrigerator.

melting point: 180 to 182 °C | inhibition at 100 µM (ALR2; bovine lens ALR2, 100 µM inhibitor, read-out: I (%, 100 µM) (ALR2) (converted)): 85.1% | IC50 (ALR2; bovine lens ALR2, substrate DL-glyceraldehyde, mean ± SEM of three measurements): 1180 ± 3.4 nM | IC50 (human AKR1B1 (hAKR1B1)): 1360 ± 4 nM
SMILES: CC(C)(C)c1cc(C=NNC(=S)Nc2ccccc2F)c(O)c(C(C)(C)C)c1 [Compound 3m, 2-(3,5-di-tert-butyl-2-hydroxybenzylidene)-N-(2-fluorophenyl)hydrazine carbothioamide]
